Measurements: PMC7479175, “Selection of Potent Inhibitors of Soluble Epoxide Hydrolase for Usage in Veterinary Medicine” (Frontiers in Veterinary Science, 2020)
Read-outs that look alike come from different tables or passages of the source.

Experiments:
[1] = molecular target: T1, sEH activity from liver cytosol of Hamster (Mesocricetus auratus, UniProt A0A1U7QV09); assay: sEH inhibition potency (IC50), radioactive assay with [3H]t-DPPO, liver cytosol; assay type: biochemical; conditions: [3H]t-DPPO ([S]final = 5 μM) as substrate
T1 sequence (A0A1U7QV09 1-554): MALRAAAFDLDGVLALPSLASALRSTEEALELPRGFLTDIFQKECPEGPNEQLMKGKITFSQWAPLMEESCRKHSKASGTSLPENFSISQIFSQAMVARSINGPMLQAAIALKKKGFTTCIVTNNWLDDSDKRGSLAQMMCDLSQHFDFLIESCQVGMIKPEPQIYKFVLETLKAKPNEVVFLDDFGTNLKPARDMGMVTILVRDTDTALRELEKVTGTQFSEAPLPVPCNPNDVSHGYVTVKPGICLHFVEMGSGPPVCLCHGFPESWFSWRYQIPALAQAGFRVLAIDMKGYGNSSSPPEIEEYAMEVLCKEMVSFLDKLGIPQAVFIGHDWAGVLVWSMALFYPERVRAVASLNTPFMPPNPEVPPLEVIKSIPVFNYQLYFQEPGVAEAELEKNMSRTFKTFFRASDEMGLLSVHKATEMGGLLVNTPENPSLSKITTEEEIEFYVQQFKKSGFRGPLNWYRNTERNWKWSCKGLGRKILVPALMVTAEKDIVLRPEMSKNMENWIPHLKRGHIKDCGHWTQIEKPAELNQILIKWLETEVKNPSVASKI
Source text: (§1) Fresh liver tissues samples (5–30 g) were collected promptly after death from healthy adult cat, dog and horse euthanized for reasons unrelated to this study, and whose bodies were given to science by the owners in line with federal regulations and protocol approved by the Institutional Animal Care and Use Committee at University of California Davis. Similarly, tissues from the other animals tested herein were collected from healthy animals immediately after being slaughter at the university abattoir. Because no animals were directly used or killed for this study, sample collections were exempted from approval by the Institutional Animal Care and Use Committee of the University of California Davis and Michigan State University. […] The tissues were flash-frozen in liquid nitrogen following removal, and then kept at −80°C until used. After thawing on ice, the samples were homogenized in chilled sodium phosphate buffer (20 mM pH 7.4) containing 5 mM EDTA, 1 mM DTT and 1 mM PMSF (tissue weight:buffer volume ratio 1:4). These homogenates were centrifuged at 100,000 g for 60 min at 4°C. The supernatant (the cytosolic fraction) was separated from the pellet, aliquoted and flash frozen in liquid nitrogen, then kept frozen at −80°C until usage.
(§2) The IC50 values reported herein were determined using either a fluorescent based assay (CMNPC as substrate) for purified enzyme preparations or a radioactive based assay ([^3H]t-DPPO as substrate) for crude enzyme preparations ([20]). The fluorescent assay was used with the purified proteins. […] The substrate (CMNPC) was then added ([S]final = 5 μM). […] The radioactive […] assay was used with the liver crude extracts. Extracts were incubated with inhibitors ([I]final = 1–1,000 nM) at 30° C for 5 min in sodium phosphate buffer (pH 7.4) containing 0.1 mg/mL of BSA and 1% of DMSO, prior to substrate introduction ([^3H]t-DPPO [S]final: 50 μM; ~12,000 dpm/assay). The enzymes were incubated at 30°C for 10 min, and the reaction was quenched by the addition of 60 μL methanol and 200 μL isooctane, which extracts the remaining epoxide from the aqueous phase. […] Assays were performed in triplicate.

[2] = molecular target: T2, sEH activity from liver cytosol of Rat (Rattus norvegicus, UniProt P80299); assay: as above; assay type: biochemical
T2 construct: The radioactive fluorescent assay was used with the liver crude extracts; from tissue; host or cells: rat liver cytosol (100,000 g supernatant)
T2 sequence (P80299 1-554): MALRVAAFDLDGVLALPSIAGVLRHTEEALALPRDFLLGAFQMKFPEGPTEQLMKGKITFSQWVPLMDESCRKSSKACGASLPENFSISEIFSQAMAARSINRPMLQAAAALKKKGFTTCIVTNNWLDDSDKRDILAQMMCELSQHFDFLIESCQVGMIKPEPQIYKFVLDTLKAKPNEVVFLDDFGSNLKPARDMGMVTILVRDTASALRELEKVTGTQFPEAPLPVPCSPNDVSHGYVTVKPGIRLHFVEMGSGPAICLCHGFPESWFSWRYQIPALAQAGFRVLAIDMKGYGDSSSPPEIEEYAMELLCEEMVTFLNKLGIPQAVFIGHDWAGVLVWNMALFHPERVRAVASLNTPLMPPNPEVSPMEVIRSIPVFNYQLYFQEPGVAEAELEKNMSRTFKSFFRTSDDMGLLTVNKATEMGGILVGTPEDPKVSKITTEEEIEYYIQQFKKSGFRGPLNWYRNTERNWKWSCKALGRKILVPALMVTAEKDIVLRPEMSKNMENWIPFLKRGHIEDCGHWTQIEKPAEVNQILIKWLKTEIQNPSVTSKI
Source text: as §1, §2

[3] = Microsomal stability; assay type: in vitro ADME, horse; conditions: for Stability (% without microsomes) Horse liver microsomes NADPH + / Stability (% without microsomes) Horse liver microsomes NADPH –: 1 μM inhibitor, microsomes 1 mg/mL, 37°C, 30 min, compound remaining, average ± SD (n = 3); for Stability (% without microsomes) Horse liver microsomes NADPH +: with NADPH; for metabolism in horse liver microsomes (in words): in the presence of NADPH
Procedure: (§3) The stability of the sEH inhibitors was determined using liver microsomes as described ([24]). […] After 30 min at 37°C, the reaction was stopped by the addition of one volume of methanol containing CUDA (200 nM) as surrogate. The amount of remaining inhibitor was determined by LC/MS/MS. The stability is reported as a percentage of compound remaining after 30 min in these conditions.
(§4) Mass spectrometry analyses were performed using a Waters Quattro Premier triple quadrupole tandem mass spectrometer (Micromass, Manchester, UK) interfaced to an electrospray ionization (ESI) source. The MS was coupled with a Waters Acquity UPLC (Waters, Milford, MA, USA). A Varian Pursuit5 C18 RP HPLC column (150 mm × 2.1 mm, particle size 5 μm) was used to separate the analytes. […] The source and the desolvation temperatures were set at 120 and 300°C, respectively. […] Dwell time was set to 0.1 s.

[4] = Microsomal stability; assay type: in vitro ADME, cat; conditions: for Stability (% without microsomes) Cat liver microsomes NADPH + / Stability (% without microsomes) Cat liver microsomes NADPH –: 1 μM inhibitor, microsomes 1 mg/mL, 37°C, 30 min, compound remaining, average ± SD (n = 3); for Stability (% without microsomes) Cat liver microsomes NADPH +: with NADPH; for metabolism in cat liver microsomes (in words): in the presence of NADPH
Procedure: as §3, §4

[5] = Microsomal stability; assay type: in vitro ADME, dog; conditions: for Stability (% without microsomes) Dog liver microsomes NADPH + / Stability (% without microsomes) Dog liver microsomes NADPH –: 1 μM inhibitor, microsomes 1 mg/mL, 37°C, 30 min, compound remaining, average ± SD (n = 3); for Stability (% without microsomes) Dog liver microsomes NADPH +: with NADPH; for metabolism in dog liver microsomes (in words): in the presence of NADPH
Procedure: as §3, §4

[6] = liver cytosol, [3H]t-DPPO ([S]final = 5 μM) as substrate, read-out: IC50 (nM) Rat

Structure (SMILES)	IC50 [1] [nM]	IC50 [2, 6] [nM]	Stability (% without microsomes) Horse liver microsomes NADPH + [3] [%]	metabolism in horse liver microsomes (in words) [3]	Stability (% without microsomes) Cat liver microsomes NADPH + [4] [%]	Stability (% without microsomes) Cat liver microsomes NADPH – [4] [%]	metabolism in cat liver microsomes (in words) [4]	Stability (% without microsomes) Dog liver microsomes NADPH + [5] [%]	Stability (% without microsomes) Dog liver microsomes NADPH – [5] [%]	metabolism in dog liver microsomes (in words) [5]	IC50 [2] [nM]	Stability (% without microsomes) Horse liver microsomes NADPH – [3] [%]	stability in horse liver microsomes (in words) ([3]; in the absence of NADPH)	stability in cat liver microsomes (in words) ([4]; in the absence of NADPH)	stability in dog liver microsomes (in words) ([5]; in the absence of NADPH)
O=C(NCCCCOc1ccc(F)cc1)NC12CC3CC(CC(C3)C1)C2 [1,707]	2	7	1.6 ± 0.2	metabolized rapidly	5 ± 1	101 ± 14	metabolized rapidly	8 ± 3	87 ± 17	metabolized rapidly					
O=C(Nc1ccc(OC(F)(F)F)cc1)N[C@H]1CC[C@H](Oc2ccc(C(=O)O)cc2)CC1 [1,728, trans-4-{4-[3-(4-trifluoromethoxy-phenyl)-ureido]-cyclohexyloxy}-benzoic acid]	5		89 ± 3	most stable	101 ± 3	103 ± 8	most stable	100 ± 3	104 ± 3	most stable	6	108 ± 10			
N#CNC(=O)CCCCCCCCCCCNC(=O)NC12CC3CC(CC(C3)C1)C2 [1,845]	34	12	28 ± 9	further metabolized	9 ± 2	5 ± 1		34 ± 11	84 ± 3	further metabolized		67 ± 3	not stable	not stable	not stable
